Among the data in ChEMBL document CHEMBL1201862, “PubChem BioAssay data set” (2004) are EC50 and IC50 values, retold here.

The source made the active and inactive calls.

The nature of assay [1]: NIH-3T3 fibroblast cytotoxicity, dose response, cytotoxicity control, cell-based, fluorescence, Alamar Blue, secondary assay (AID 2327).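 Note: NIH-3T3 mouse fibroblasts cultured with fluconazole at 8 µg/mL.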 The assay is classed as functional.
The target in assay [2] is Troponin, cardiac muscle (Homo sapiens, UniProt P19429+P45379+P63316). In words: inhibitors of cardiac thin filament calcium sensitivity, dose response, biochemical, fluorescence, cardiac regulated thin filaments, triplicate IC50 (AID 504742). Type of assay: protein-complex assay.
Assay [3] has as its target T1, Exodeoxyribonuclease V (Escherichia coli (strain K12), UniProt P04993+P07648+P08394).
T1 sequence (P04993 whole entry): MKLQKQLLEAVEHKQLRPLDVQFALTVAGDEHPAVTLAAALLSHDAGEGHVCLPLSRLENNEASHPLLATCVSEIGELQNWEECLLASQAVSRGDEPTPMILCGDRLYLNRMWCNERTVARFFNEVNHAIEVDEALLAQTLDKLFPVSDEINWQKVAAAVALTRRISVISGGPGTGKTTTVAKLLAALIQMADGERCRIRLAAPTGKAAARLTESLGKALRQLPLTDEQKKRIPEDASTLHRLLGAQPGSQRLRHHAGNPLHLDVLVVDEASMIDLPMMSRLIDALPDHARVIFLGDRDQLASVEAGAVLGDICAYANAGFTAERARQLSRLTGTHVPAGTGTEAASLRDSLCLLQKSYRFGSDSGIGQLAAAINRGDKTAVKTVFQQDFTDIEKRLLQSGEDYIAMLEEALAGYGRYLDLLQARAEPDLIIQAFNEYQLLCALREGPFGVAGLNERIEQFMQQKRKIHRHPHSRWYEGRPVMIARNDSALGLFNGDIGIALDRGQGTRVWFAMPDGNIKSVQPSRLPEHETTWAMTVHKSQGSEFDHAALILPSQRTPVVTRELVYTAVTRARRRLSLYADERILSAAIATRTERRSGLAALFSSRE
T1 sequence (P07648 whole entry): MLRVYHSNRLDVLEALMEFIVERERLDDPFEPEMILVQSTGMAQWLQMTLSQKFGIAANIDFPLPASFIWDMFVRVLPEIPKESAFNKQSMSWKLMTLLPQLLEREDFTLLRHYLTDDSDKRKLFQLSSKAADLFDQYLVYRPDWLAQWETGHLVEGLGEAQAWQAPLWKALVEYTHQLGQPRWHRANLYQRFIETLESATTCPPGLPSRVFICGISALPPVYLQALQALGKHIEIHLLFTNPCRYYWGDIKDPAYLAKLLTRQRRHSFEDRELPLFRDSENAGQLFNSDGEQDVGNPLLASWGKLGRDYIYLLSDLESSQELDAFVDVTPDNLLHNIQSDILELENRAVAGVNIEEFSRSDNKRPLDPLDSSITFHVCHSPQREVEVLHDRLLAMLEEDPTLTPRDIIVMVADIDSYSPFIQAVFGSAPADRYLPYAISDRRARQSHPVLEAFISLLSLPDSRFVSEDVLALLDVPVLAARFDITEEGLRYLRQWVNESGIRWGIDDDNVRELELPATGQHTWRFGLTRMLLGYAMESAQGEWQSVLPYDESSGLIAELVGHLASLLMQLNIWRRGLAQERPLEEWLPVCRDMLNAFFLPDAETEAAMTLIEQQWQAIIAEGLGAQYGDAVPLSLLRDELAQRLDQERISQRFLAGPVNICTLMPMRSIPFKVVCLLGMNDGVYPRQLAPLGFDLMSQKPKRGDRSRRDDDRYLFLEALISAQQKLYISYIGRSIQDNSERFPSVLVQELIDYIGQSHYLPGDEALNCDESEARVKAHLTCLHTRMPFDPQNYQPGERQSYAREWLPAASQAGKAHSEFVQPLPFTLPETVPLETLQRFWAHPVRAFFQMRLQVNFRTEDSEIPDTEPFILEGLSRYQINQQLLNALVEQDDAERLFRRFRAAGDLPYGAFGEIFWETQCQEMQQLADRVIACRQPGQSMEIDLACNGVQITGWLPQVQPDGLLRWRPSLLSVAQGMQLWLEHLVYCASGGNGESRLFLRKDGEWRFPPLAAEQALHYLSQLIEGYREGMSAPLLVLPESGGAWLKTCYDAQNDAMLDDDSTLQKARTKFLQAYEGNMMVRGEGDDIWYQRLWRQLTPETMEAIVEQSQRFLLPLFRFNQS
T1 sequence (P08394 whole entry): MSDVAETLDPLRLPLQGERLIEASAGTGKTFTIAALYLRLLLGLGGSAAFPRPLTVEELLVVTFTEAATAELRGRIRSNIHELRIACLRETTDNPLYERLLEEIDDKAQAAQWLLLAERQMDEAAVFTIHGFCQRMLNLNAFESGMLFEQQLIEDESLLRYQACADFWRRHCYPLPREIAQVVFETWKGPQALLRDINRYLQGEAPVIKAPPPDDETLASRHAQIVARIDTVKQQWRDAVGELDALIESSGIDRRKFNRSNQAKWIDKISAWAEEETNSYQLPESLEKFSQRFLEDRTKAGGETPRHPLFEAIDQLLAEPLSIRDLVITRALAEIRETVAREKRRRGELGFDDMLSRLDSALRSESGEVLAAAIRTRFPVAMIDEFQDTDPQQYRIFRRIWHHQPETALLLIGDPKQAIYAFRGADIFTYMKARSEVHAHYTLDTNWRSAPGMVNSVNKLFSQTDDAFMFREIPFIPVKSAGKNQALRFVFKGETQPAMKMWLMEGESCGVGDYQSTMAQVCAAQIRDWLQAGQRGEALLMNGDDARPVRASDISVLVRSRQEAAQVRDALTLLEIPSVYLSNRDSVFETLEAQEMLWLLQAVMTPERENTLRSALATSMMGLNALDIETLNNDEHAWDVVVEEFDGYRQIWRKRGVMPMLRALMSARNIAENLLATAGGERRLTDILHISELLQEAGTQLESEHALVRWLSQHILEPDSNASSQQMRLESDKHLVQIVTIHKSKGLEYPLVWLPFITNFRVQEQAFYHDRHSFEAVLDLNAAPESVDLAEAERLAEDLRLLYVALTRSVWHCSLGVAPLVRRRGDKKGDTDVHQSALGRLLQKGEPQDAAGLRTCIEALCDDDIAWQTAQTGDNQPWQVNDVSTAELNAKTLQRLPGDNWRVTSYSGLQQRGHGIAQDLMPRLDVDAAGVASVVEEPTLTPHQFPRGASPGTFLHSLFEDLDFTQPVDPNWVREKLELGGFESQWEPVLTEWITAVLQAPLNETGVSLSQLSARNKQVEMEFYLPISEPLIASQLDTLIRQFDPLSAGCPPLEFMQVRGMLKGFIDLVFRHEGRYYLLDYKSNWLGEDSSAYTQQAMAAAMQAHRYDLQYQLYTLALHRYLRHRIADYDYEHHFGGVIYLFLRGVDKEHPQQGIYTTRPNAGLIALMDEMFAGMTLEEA
In words: E. coli RecBCD inhibitors, dose response, counter-screen for AddAB inhibitor project, absorbance, V66 E. coli, mutant T4 phage (AID 492957). Type of assay: functional, cell-based, Escherichia coli str. K-12 substr. MG1655.

On to `COc1cc(-c2nnc(SCc3cc(=O)oc4cc(O)c(O)cc34)o2)cc(OC)c1OC`, for which the EC50 in assay [1] is > 150 µM (inactive). In addition, the IC50 in assay [2] is > 2.65 µM (active); in assay [3], > 119 µM (inactive).
